Reference: ChEMBL document CHEMBL5385861, “Development of novel hydrazidoarylaminopyrimidine-based BTK/FLT3 dual inhibitors with potent in vivo anti-hematological malignancies effects” (Eur J Med Chem, 2023)
Blank lines part the entries; values can stand above or below the compound they belong to. Active and inactive are the calls of the source. No cut-off for these calls is given here.

Experiments:
JeKo-1 [1] = assay: cells; conditions: Homo sapiens, JeKo-1, 72 h
Description: Antiproliferative activity against human JeKo-1 cells assessed as inhibition of cell growth incubated for 72 hrs by CCK8 assay

JeKo-1 [2] = assay: Antitumor activity against human JeKo-1 cells xenografted NOD/SCID mouse assessed as tumor growth inhibition at 50 mg/kg, ip measured for 16 days; type: functional; conditions: JeKo-1, 384 h, time 16 day, read-out: TGI
MOLT-4 = assay: cells; conditions: Homo sapiens, MOLT-4, 72 h
Description: Antiproliferative activity against human MOLT-4 cells assessed as inhibition of cell growth incubated for 72 hrs by CCK8 assay

MV4-11 [3] = assay: cells; conditions: Homo sapiens, MV4-11, 72 h
JeKo-1 [4] = assay: Antitumor activity against human JeKo-1 cells xenografted NOD/SCID mouse assessed as reduction in tumor weight at 50 mg/kg, ip measured for 16 days; type: functional; conditions: time 16 day
K562 = assay: cells; conditions: Homo sapiens, K562, 72 h
Description: Antiproliferative activity against human K562 cells assessed as inhibition of cell growth incubated for 72 hrs by CCK8 assay

MV4-11 [5] = assay: Antitumor activity against human MV4-11 cells xenografted NOD/SCID mouse assessed as increase in tumor necrotic cells at 20 mg/kg, ip administered once daily for 21 days by H and E staining analysis; type: functional, organism-based; conditions: time 21.0 day
JeKo-1 [6] = assay: Induction of apoptosis in human JeKo-1 cells assessed as early apoptotic cells at 750 nM incubated for 72 hrs by Annexin VFITC/PI staining based flow cytometry analysis (reference value: 3.10%); type: functional
JeKo-1 [7] = assay: Induction of apoptosis in human JeKo-1 cells assessed as late apoptotic cells at 750 nM incubated for 72 hrs by Annexin VFITC/PI staining based flow cytometry analysis (reference value: 1.42%); type: functional
JeKo-1 [8] = assay: Induction of apoptosis in human JeKo-1 cells assessed as viable cells at 750 nM incubated for 72 hrs by Annexin VFITC/PI staining based flow cytometry analysis (reference value: 94.81%); type: functional
JeKo-1 [9] = assay: Induction of apoptosis in human JeKo-1 cells assessed as necrotic cells at 750 nM incubated for 72 hrs by Annexin VFITC/PI staining based flow cytometry analysis (reference value: 0.67%); type: functional
[10] = Metabolic stability in human liver microsome assessed as intrinsic clearance preincubated with compound for 5 mins followed by NADPH addition and measured upto 60 mins by LC-MS/MS analysis; type: ADME; conditions: liver microsomes, time < 65 min, read-out: CLH
[11] = Metabolic stability in human liver microsome assessed as half life preincubated with compound for 5 mins followed by NADPH addition and measured upto 60 mins by LC-MS/MS analysis; type: ADME; conditions: liver microsomes, time < 65 min
[12] = target: Tyrosine-protein kinase BTK (Homo sapiens, UniProt Q06187); assay: Inhibition of BTK (unknown origin) incubated for 40 mins by radiometric kinase assay
Sequence of Tyrosine-protein kinase BTK (Q06187 whole entry): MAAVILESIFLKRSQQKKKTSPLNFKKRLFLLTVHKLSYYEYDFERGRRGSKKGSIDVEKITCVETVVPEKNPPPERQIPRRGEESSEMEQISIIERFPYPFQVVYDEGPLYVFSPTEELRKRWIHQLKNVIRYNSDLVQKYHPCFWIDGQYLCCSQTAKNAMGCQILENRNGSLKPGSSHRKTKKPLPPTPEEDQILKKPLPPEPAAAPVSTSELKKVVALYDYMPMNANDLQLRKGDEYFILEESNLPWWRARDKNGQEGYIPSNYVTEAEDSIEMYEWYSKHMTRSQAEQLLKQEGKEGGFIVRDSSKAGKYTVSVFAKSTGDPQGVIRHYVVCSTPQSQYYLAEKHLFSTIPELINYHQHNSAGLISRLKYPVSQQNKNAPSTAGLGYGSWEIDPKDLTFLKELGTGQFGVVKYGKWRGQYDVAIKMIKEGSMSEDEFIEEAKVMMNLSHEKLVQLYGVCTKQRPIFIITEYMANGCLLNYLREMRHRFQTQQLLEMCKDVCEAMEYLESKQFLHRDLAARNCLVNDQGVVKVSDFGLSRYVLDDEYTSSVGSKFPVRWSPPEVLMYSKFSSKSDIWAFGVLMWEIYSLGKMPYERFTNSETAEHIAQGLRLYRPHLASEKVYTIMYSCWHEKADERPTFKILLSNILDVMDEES

in vitro [13] = conditions: human, Caco-2
Description: Apparent permeability across basolateral to apical side in human Caco-2 cells incubated for 120 mins by LC-MS/MS analysis

in vitro [14] = conditions: human, Caco-2; remark: listed apart in the source
Description: Apparent permeability across apical to basolateral side in human Caco-2 cells incubated for 120 mins by LC-MS/MS analysis

P-glycoprotein = assay: in vitro; conditions: human, Caco-2
Description: Efflux ratio of apparent permeability across basolateral to apical side over apical to basolateral side in human Caco-2 cells incubated for 120 mins in presence of P-glycoprotein by LC-MS/MS analysis

- IC50 (JeKo-1 [1]): > 2000 nM
SMILES: COc1cc(N2CCN(C)CC2)ccc1Nc1ncc(F)c(Nc2ccccc2C(=O)NN)n1

- IC50 (JeKo-1 [1]): > 2000 nM
SMILES: NNC(=O)c1ccc(Nc2nc(Nc3ccc(N4CCOCC4)cc3)ncc2F)cc1

- IC50 (JeKo-1 [1]): 801 nM
SMILES: NNC(=O)c1cccc(Nc2nc(Nc3ccc(N4CCOCC4)cc3)ncc2F)c1

- IC50 (JeKo-1 [1]): > 2000 nM
SMILES: NNC(=O)c1ccc(Nc2nc(Nc3ccc(N4CCCCC4)cc3)ncc2F)cc1

- IC50 (JeKo-1 [1]): 562 nM
SMILES: CN1CCN(c2ccc(Nc3ncc(F)c(Nc4cccc(C(=O)NN)c4)n3)cc2)CC1

- IC50 (MOLT-4): 65 nM
- IC50 (MV4-11 [3]): 31 nM
- IC50 [12]: 84 nM
- IC50 (K562): 690 nM
- IC50 (JeKo-1 [1]): 52 nM
SMILES: CN1CCN(c2ccc(Nc3ncc(F)c(Nc4ccccc4C(=O)NN)n3)cc2F)CC1

- IC50 (MOLT-4): 239 nM
- IC50 (MV4-11 [3]): 41 nM
- IC50 [12]: 105 nM
- IC50 (K562): > 25000 nM
- IC50 (JeKo-1 [1]): 88 nM
SMILES: NNC(=O)c1ccccc1Nc1nc(Nc2ccc(N3CCOCC3)cc2)ncc1F

- IC50 (JeKo-1 [1]): 1880 nM
SMILES: NNC(=O)c1ccccc1Nc1nc(Nc2ccc(N3CCCCC3)cc2)ncc1F

- IC50 (JeKo-1 [1]): 1240 nM
SMILES: NNC(=O)c1cccc(Nc2nc(Nc3ccc(N4CCCCC4)cc3)ncc2F)c1

- IC50 (JeKo-1 [1]): 1280 nM
SMILES: CCN1CCN(c2ccc(Nc3ncc(F)c(Nc4ccccc4C(=O)NN)n3)cc2)CC1

Second part, the compound before the results:

SMILES: CN1CCN(c2ccc(Nc3ncc(F)c(Nc4ccc(C(=O)NN)cc4)n3)cc2)CC1
- IC50 (JeKo-1 [1]): 1410 nM

SMILES: C=CC(=O)Nc1cccc(Nc2nc(Nc3ccc(OCCOC)cc3)ncc2F)c1 [SPEBRUTINIB]
- inhibition in vivo at 50 mg/kg (JeKo-1 [2]): 38.1%
- IC50 (MOLT-4): 1460 nM
- IC50 (MV4-11 [3]): 245 nM
- Activity (JeKo-1 [4]): 0.69 g
- IC50 (K562): 7400 nM
- IC50 (JeKo-1 [1]): 1480 nM

SMILES: COc1cc(N2CCN(C)CC2)ccc1Nc1ncc(F)c(Nc2ccc(C(=O)NN)cc2)n1
- IC50 (JeKo-1 [1]): > 2000 nM

SMILES: COc1cc(N2CCN(C)CC2)ccc1Nc1ncc(F)c(Nc2cccc(C(=O)NN)c2)n1
- IC50 (JeKo-1 [1]): > 2000 nM

SMILES: CNC(=O)c1cc(Oc2ccc(NC(=O)Nc3ccc(Cl)c(C(F)(F)F)c3)cc2)ccn1 [SORAFENIB]
- IC50 (MOLT-4): 2500 nM
- Activity (MV4-11 [5]): Active
- IC50 (K562): 7740 nM
- IC50 (JeKo-1 [1]): 1070 nM

SMILES: C=CC(=O)N1CCC[C@@H](n2nc(-c3ccc(Oc4ccccc4)cc3)c3c(N)ncnc32)C1 [IBRUTINIB]
- Activity (JeKo-1 [6]): 14.42%
- IC50 (MOLT-4): 3520 nM
- IC50 (MV4-11 [3]): 423 nM
- IC50 (K562): 5570 nM
- Activity (JeKo-1 [7]): 0.32%
- Activity (JeKo-1 [8]): 85.08%
- Activity (JeKo-1 [9]): 0.18%
- IC50 (JeKo-1 [1]): 1680 nM

SMILES: CCN1CCN(c2ccc(Nc3ncc(F)c(Nc4cccc(C(=O)NN)c4)n3)cc2)CC1
- IC50 (JeKo-1 [1]): 540 nM

SMILES: O=C(O)Cc1ccccc1Nc1c(Cl)cccc1Cl [DICLOFENAC]
- CLint scaled [10]: 230 mL/min/kg
- half-life [11]: 5.44 min

SMILES: CN1CCN(c2ccc(Nc3ncc(F)c(Nc4ccc(C(=O)NN)cc4)n3)cc2F)CC1
- IC50 (JeKo-1 [1]): 1090 nM

SMILES: C[C@H]1O[C@@H](O[C@H]2[C@@H](O)C[C@H](O[C@H]3[C@@H](O)C[C@H](O[C@H]4CC[C@@]5(C)[C@H](CC[C@@H]6[C@@H]5C[C@@H](O)[C@]5(C)[C@@H](C7=CC(=O)OC7)CC[C@]65O)C4)O[C@@H]3C)O[C@@H]2C)C[C@H](O)[C@@H]1O [DIGOXIN]
- Papp B→A at 2 h (in vitro [13]): 11.2 ×10⁻⁶ cm/s
- Papp A→B at 2 h (in vitro [14]): 0.25 ×10⁻⁶ cm/s
- efflux ratio at 2 h (P-glycoprotein): 44.1

SMILES: CC(C)NCC(O)COc1cccc2ccccc12 (stereo unspecified) [PROPRANOLOL]
- Papp B→A at 2 h (in vitro [13]): 20.1 ×10⁻⁶ cm/s
- Papp A→B at 2 h (in vitro [14]): 32.4 ×10⁻⁶ cm/s
- efflux ratio at 2 h (P-glycoprotein): 0.62

SMILES: CN1CCN(c2ccc(Nc3ncc(F)c(Nc4cccc(C(=O)NN)c4)n3)cc2F)CC1
- IC50 (JeKo-1 [1]): 222 nM

SMILES: CCN1CCN(c2ccc(Nc3ncc(F)c(Nc4ccc(C(=O)NN)cc4)n3)cc2)CC1
- IC50 (JeKo-1 [1]): 1750 nM
